≈ marks a conversion by molar mass, not a printed value. Like-named read-outs stand apart in the source and are kept apart here.
How the values were obtained:
[1] = Metabolic stability in liver microsomes; assay type: in vitro ADME; conditions: mouse liver microsomes
[2] = molecular target: T1, CYP1A2 (Homo sapiens, UniProt P05177); assay: CYP inhibition assay (Crespi, fluorescent probe); assay type: in vitro ADME
T1 construct: five CYP isozymes (CYP3A4, 1A2, 2C9, 2C19, and 2D6) from human LM; from tissue; host or cells: human liver microsomes
T1 sequence (P05177 1-516): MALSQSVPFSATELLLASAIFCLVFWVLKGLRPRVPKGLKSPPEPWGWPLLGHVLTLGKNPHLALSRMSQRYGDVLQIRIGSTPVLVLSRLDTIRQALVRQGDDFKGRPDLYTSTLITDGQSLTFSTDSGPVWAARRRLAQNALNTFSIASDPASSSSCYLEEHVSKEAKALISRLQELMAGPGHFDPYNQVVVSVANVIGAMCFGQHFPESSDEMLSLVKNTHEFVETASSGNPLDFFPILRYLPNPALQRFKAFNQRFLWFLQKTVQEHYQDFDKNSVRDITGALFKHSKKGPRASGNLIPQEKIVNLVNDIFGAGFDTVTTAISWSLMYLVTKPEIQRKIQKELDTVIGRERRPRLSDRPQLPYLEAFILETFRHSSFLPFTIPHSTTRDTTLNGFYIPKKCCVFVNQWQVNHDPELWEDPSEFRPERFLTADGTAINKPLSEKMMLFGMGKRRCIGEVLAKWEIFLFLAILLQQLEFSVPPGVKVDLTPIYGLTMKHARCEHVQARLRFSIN
Procedure: (§1) Cytochrome P450 (CYP) inhibition assay was carried out according to the principle of the Crespi assay. Fluorescent probe substrates (BD Gentest, USA) used for each CYP isozyme were: 3-cyano-7-ethoxycoumarin for CYP1A2 and CYP2C19, 7-benzyloxy-trifluoromethylcoumarin for CYP3A4, 7-methoxy-4-trifluoromethylcoumarin for CYP2C9 and 3-[2-(N,N-diethyl-N-methylamino)ethyl]-7-methoxy-4-methyl-coumarin for CYP2D6. […] All reactions were stopped by addition of 75 µL of 0.1 M tris in acetonitrile and analyzed by an LC-MS/MS product ion monitoring method on Agilent 1200 HPLC (Agilent, USA) and API-5000 mass spectrometer (Canada). IC50 value was calculated using SigmaPlot 10.0 (Systat Software Inc., USA).

[3] = molecular target: T2, CYP2C19 (Homo sapiens, UniProt P33261); assay: CYP inhibition assay (Crespi, fluorescent probe); assay type: in vitro ADME
T2 construct: five CYP isozymes (CYP3A4, 1A2, 2C9, 2C19, and 2D6) from human LM; from tissue; host or cells: human liver microsomes
T2 sequence (P33261 whole entry): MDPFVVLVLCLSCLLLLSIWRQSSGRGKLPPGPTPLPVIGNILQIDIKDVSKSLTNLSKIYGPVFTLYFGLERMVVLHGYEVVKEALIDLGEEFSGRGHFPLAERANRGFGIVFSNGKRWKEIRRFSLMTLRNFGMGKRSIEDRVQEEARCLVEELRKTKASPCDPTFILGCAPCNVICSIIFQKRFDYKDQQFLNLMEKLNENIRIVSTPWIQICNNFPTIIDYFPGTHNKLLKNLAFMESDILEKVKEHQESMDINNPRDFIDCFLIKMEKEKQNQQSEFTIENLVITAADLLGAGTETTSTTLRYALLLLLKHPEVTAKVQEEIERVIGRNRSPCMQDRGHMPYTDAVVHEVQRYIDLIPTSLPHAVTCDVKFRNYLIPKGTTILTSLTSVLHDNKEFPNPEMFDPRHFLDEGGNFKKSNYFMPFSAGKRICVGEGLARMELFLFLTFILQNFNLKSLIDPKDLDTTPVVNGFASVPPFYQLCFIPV
Procedure: as §1

[4] = molecular target: T3, CYP2C9 (Homo sapiens, UniProt P11712); assay: CYP inhibition assay (Crespi, fluorescent probe); assay type: in vitro ADME
T3 construct: five CYP isozymes (CYP3A4, 1A2, 2C9, 2C19, and 2D6) from human LM; from tissue; host or cells: human liver microsomes
T3 sequence (P11712 whole entry): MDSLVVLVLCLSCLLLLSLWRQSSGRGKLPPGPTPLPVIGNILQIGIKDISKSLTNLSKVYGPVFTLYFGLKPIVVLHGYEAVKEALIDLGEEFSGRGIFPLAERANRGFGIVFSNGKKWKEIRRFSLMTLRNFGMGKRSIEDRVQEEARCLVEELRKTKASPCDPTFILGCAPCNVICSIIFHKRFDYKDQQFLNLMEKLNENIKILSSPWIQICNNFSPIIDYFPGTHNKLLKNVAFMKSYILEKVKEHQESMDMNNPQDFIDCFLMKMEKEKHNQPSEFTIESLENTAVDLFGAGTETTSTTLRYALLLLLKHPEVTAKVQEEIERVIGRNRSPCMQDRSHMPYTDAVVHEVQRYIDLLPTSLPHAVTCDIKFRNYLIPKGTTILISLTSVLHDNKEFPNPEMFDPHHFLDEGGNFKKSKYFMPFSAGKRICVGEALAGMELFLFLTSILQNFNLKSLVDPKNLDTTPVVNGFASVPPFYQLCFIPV
Procedure: as §1

[5] = molecular target: T4, CYP2D6 (Homo sapiens, UniProt P10635); assay: CYP inhibition assay (Crespi, fluorescent probe); assay type: in vitro ADME
T4 construct: five CYP isozymes (CYP3A4, 1A2, 2C9, 2C19, and 2D6) from human LM; from tissue; host or cells: human liver microsomes
T4 sequence (P10635 whole entry): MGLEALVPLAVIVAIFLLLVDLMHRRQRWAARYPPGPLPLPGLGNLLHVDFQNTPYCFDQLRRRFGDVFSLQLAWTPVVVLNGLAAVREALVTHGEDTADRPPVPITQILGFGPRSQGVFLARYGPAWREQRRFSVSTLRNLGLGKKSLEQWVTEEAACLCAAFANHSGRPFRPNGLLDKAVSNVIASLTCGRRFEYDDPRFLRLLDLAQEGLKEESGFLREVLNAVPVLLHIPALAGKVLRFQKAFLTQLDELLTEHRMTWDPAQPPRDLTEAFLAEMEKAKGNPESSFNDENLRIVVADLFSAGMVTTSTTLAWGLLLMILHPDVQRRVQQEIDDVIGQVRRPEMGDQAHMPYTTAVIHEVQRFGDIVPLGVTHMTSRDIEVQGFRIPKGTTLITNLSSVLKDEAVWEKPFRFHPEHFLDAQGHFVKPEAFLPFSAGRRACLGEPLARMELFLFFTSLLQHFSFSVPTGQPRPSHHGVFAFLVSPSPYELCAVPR
Procedure: as §1

[6] = molecular target: T5, CYP3A4 (Homo sapiens, UniProt P08684); assay: CYP inhibition assay (Crespi, fluorescent probe); assay type: in vitro ADME
T5 construct: five CYP isozymes (CYP3A4, 1A2, 2C9, 2C19, and 2D6) from human LM; from tissue; host or cells: human liver microsomes
T5 sequence (P08684 whole entry): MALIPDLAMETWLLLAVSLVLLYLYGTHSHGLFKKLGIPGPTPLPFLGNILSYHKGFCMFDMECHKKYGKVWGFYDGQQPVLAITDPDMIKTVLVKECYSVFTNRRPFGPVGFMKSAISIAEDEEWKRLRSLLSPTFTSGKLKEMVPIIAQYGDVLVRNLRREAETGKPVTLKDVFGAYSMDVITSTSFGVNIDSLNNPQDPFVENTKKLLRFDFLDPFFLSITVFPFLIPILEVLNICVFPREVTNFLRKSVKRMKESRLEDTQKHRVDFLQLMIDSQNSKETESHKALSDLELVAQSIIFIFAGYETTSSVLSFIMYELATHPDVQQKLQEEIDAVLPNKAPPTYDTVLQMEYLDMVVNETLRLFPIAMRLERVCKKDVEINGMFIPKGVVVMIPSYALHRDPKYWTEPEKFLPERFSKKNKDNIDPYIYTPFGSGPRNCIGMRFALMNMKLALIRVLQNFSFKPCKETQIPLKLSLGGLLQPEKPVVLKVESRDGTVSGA
Procedure: as §1

[7] = Solubility studies; assay type: physicochemical
Procedure: Solubility studies Solubility of KMS88009 in distilled water (DW), simulated gastric fluid (SGF, pH 1.2), simulated intestinal fluid (SIF, pH 6.8) and DMSO/tween-20/saline was determined. Excess amounts of KMS88009 were placed in screw-capped vials containing 2 mL of DW, SGF, SIF and DMSO/tween-20/saline. Suspensions were vortexed for 2 min and kept in a shaking water-bath at 37 °C. We transferred 250 μL of each sample to the filter insert of centrifuge tubes. After centrifugation at 16,000 rpm for 15 min, the filtrates of DW, SGF and SIF were analyzed by HPLC (Agilent 1200 series, USA). Values are expressed as the mean ± SD of 2 independent experiments.

Q: Which half-life at 5 µM [1] does the source give for COc1ccc2cc(C=Cc3ccc(N(C)C)cc3)oc2c1 [KMS88009, 6-methoxy-2-(4-dimethylaminostyryl) benzofuran] here?
A: 1.088 ± 0.01 h

Q: And the remaining at 1 h, 5 µM ([1]; read-out: Remaining % of parent molecule at 60 min.)?
A: 52.4 ± 0.3%

Q: What about the IC50 [2] of the same compound?
A: 0.74 ± 0.12 µM

Q: What about the IC50 [3] of the same compound?
A: 2.51 ± 0.21 µM

Q: What about the IC50 [4] of the same compound?
A: 22.4 ± 1.25 µM

Q: What about the IC50 [5] of the same compound?
A: > 50 µM

Q: And the IC50 [6]?
A: 9.84 ± 0.15 µM

Q: What about the solubility ([7]; DMSO/tween-20/saline, read-out: Solubility) of the same compound?
A: 0.583 mg/mL (≈ 1990 µM)

Q: And the solubility ([7]; DW (distilled water), 37 °C)?
A: 0.000 mg/kg

Q: And the solubility ([7]; SIF, pH 6.8, 37 °C)?
A: 0.000 mg/kg

Q: And the solubility ([7]; simulated gastric fluid (SGF), SGF, pH 1.2, 37 °C, read-out: Solubility)?
A: 0.004 mg/mL (≈ 13.6 µM)

Reference: PMC3997483, “Aminostyrylbenzofuran Directly Reduces Oligomeric Amyloid-β and Reverses Cognitive Deficits in Alzheimer Transgenic Mice” (PLoS ONE, 2014)
